The source of these data is patent US8680159B2, “Bradykinin 1 receptor modulating compounds” (Gruenenthal GmbH, priority 2010, dated 2014).

One may read the inhibition as the drop in the measured response relative to a control, in per cent.

In assay [1] the target is T1, human B1R receptor (CHO K1 cells stably transfected with the human B1R gene) (Homo sapiens, UniProt P46663).
T1 construct: expressed in transfected cells; host or cells: CHO K1 cells (Chinese hamster ovary), stably transfected
T1 sequence (P46663 1-353): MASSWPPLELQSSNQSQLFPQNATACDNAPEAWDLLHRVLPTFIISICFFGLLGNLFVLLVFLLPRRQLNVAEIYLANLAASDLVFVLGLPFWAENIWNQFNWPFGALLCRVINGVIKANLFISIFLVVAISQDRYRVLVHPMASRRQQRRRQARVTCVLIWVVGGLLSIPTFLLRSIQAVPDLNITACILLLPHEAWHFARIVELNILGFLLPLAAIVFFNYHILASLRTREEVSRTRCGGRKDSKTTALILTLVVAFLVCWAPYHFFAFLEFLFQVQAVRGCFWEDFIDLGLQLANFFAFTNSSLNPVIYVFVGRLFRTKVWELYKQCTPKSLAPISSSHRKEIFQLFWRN
The assay is described as follows: Functional study on the bradykinin receptor 1 (B1R), Ca2+ fluorescence (Fluo-4) FLIPR/Novostar assay, hB1R cells. It is filed as cell-based. In a few lines: (§1)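 Stably transfected CHO K1 cells carrying human or rat B1R were Fluo-4 loaded and Ca2+ fluorescence read by FLIPR or Novostar. Compounds were added first at 10 μM for % activation, then the EC80 agonist was applied after 6-20 min (human: Lys-Des-Arg9-bradykinin; rat: Des-Arg9-bradykinin). % inhibition is relative to maximum achievable inhibition, and IC50 comes from concentration series.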

Assay [2] addresses T2, B1R receptor of the rat (CHO K1 cells stably transfected with the B1R gene of the rat) (Rattus norvegicus, UniProt P97583).
T2 construct: expressed in transfected cells; host or cells: CHO K1 cells (Chinese hamster ovary), stably transfected
T2 sequence (P97583 1-337): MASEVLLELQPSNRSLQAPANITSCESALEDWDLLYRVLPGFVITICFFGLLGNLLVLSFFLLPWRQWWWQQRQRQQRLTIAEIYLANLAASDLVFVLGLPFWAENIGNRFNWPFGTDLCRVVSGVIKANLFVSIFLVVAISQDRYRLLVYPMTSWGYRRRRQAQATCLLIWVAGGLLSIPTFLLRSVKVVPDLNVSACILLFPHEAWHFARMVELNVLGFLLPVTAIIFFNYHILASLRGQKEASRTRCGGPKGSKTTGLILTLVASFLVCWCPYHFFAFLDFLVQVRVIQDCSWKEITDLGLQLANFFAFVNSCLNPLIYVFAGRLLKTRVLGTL
The assay can be described thus: Functional study on the bradykinin receptor 1 (B1R), Ca2+ fluorescence (Fluo-4) FLIPR/Novostar assay, rB1R cells. It is filed as cell-based. The following applies: CHO-K1, 10 μM. Summed up:
as §1

Where [3] appears, read: CHO-K1, read-out: % inhibition (human B1R) at 10 μM.
Setting [4] is: read-out: % inhibition (rat B1R) at 10 μM.
Setting [5] is: CHO-K1, read-out: % Inhibition (h-B1R) at 10 μM.
[6] abbreviates: read-out: % Inhibition (r-B1R) at 10 μM.

Where two headings read alike, the source gives them in different places.

On to `CN(C(=O)c1ccc2c(c1)[C@H](NC(=O)c1ccccc1F)CC2)C1CCN(c2ccncc2)CC1` [Example H-29, (3R)-3-[(2-Fluoro-benzoyl)amino]-N-methyl-N-(1-pyridin-4-yl-piperidin-4-yl)-2,3-dihydro-1H-indene-5-carboxylic acid amide], for which the inhibition at 10 µM in assay [1] (setting [3]) was 99%; in assay [2] (setting [4]), 100%.

Turning to `CN(C(=O)c1ccc2c(c1)CC[C@H]2NC(=O)c1ccccc1Cl)C1CCN(c2ccncc2)CC1` [Example H-17, (1R)-1-[(2-Chloro-benzoyl)amino]-N-methyl-N-(1-pyridin-4-yl-piperidin-4-yl)-2,3-dihydro-1H-indene-5-carboxylic acid amide], the inhibition at 10 µM amounted to 100% in assay [1] (setting [3]) and 77% in assay [2] (setting [4]).

With `Cc1nsc(N2CCC(N(C)C(=O)c3ccc4c(c3)[C@H](NC(=O)c3ccccc3Cl)CC4)CC2)n1` [Example H-125, (3R)-3-[(2-Chloro-benzoyl)amino]-N-methyl-N-[1-(3-methyl-[1,2,4]thiadiazol-5-yl)-piperidin-4-yl]-2,3-dihydro-1H-indene-5-carboxylic acid amide], the inhibition at 10 µM in assay [1] (setting [3]) turned out to be 70%; in assay [2] (setting [4]), 104%.

`O=C(NC1CCN(c2ccc(C(F)(F)F)cn2)C1)c1ccc2c(c1)[C@H](NC(=O)c1ccccc1Cl)CC2` (stereo partly drawn) [Example H-04, (3R)-3-[(2-Chloro-benzoyl)amino]-N-[1-[5-(trifluoromethyl)-pyridin-2-yl]-pyrrolidin-3-yl]-2,3-dihydro-1H-indene-5-carboxylic acid amide]: the results for the inhibition at 10 µM in assay [1] (setting [3]) and in assay [2] (setting [4]) were 21% and 47%, respectively.

Consider `CC(C)CC(=O)NC1CCc2ccc(C(=O)N(C)C3CCN(c4ccncc4)CC3)cc21` (centres unmarked) [CC_H-41, N-Methyl-3-(3-methyl-butanoylamino)-N-(1-pyridin-4-yl-piperidin-4-yl)-2,3-dihydro-1H-indene-5-carboxylic acid amide], for which the inhibition at 10 µM in assay [1] (setting [5]) is 100%; in assay [2] (setting [6]) it was 104%.

Regarding `CN(C(=O)c1ccc2c(c1)[C@H](NC(=O)c1cccc(C(F)(F)F)c1Cl)CC2)C1CCN(c2ccncc2)CC1` [Example H-24, (3R)-3-[[2-Chloro-3-(trifluoromethyl)-benzoyl]amino]-N-methyl-N-(1-pyridin-4-yl-piperidin-4-yl)-2,3-dihydro-1H-indene-5-carboxylic acid amide], the inhibition at 10 µM in assay [1] (setting [3]) is 100%; in assay [2] (setting [4]), 98%.

As for `CN(C(=O)c1ccc2c(c1)[C@H](NC(=O)c1ccccc1Cl)CC2)C1CCN(c2ccc(F)cc2)CC1` [Example H-78, (3R)-3-[(2-Chloro-benzoyl)amino]-N-[1-(4-fluorophenyl)-pipendin-4-yl]-N-methyl-2,3-dihydro-1H-indene-5-carboxylic acid amide], the inhibition at 10 µM in assay [1] (setting [3]) came to 31%; in assay [2] (setting [4]), 85%.

For `CCN(C(=O)c1ccccc1Cl)[C@@H]1CCc2ccc(C(=O)N(C)C3CCN(c4cc(C)nc(C)n4)CC3)cc21` [Example H-145, (3R)-3-[(2-Chloro-benzoyl)-ethyl-amino]-N-[1-(2,6-dimethyl-pyrimidin-4-yl)-piperidin-4-yl]-N-methyl-2,3-dihydro-1H-indene-5-carboxylic acid amide], the inhibition at 10 µM in assay [1] (setting [3]) stood at 100%; in assay [2] (setting [4]), 106%.

Consider `CN(C(=O)c1ccc2c(c1)C(NC(=O)c1sccc1Cl)CCO2)C1CCN(c2ccncc2)CC1` (centres unmarked) [CC_H-40, 4-[(3-Chloro-thiophene-2-carbonyl)amino]-N-methyl-N-(1-pyridin-4-yl-piperidin-4-yl)-3,4-dihydro-2H-chromene-6-carboxylic acid amide], for which the values for the inhibition at 10 µM in assay [1] (setting [5]) and in assay [2] (setting [6]) were 95% and 100%, respectively.

As to `CN1CCN([C@@H]2CCC[C@H](N(C)C(=O)c3ccc4c(c3)[C@H](NC(=O)c3ccccc3Cl)CC4)C2)CC1` [Example H-103, (3R)-3-[(2-Chloro-benzoyl)amino]-N-methyl-N-[(1S,3R)-3-(4-methyl-piperazin-1-yl)-cyclohexyl]-2,3-dihydro-1H-indene-5-carboxylic acid amide], the inhibition at 10 µM in assay [1] (setting [3]) was 27%; in assay [2] (setting [4]), 72%.
